Assay results published in patent US20230346853A1, “Probiotic Lyophilizate Reactivation Composition for Improving Intestinal Survivability and Adhesion of Probiotics” (COSMAX NBT, INC., priority 2021, published 2023).
Like-named read-outs stand apart in the source and are kept apart here.

Experiments:
[1] = tested on: Lactobacillus plantarum HAC03; assay: in vitro Simulated Stomach Duodenum Passage (SSDP) probiotic survivability, lyophilized HAC03; format: cell-based; conditions: for survivability compared with fresh cells, in words / Artificial Bile Juice Survivability (%) / Artificial Bile Juice log CFU/mL / Artificial Gastric Juice Survivability (%) / Artificial Gastric Juice log CFU/mL: Table 3; for Artificial Bile Juice Survivability (%) / Artificial Bile Juice log CFU/mL / Artificial Gastric Juice Survivability (%) / Artificial Gastric Juice log CFU/mL: carbohydrate mixed with HAC03 lyophilizate; for viability at 100000 µM: Lactiplantibacillus plantarum; for intestinal survivability (acid resistance and bile resistance) in words: compared to fresh bacteria / distilled water
Experimental: The HAC03 strain was mixed with each of the single compositions and 1 mL of distilled water for 1 min. The compositions were formulated to have a final concentration of 0.1 M when dissolved in 1 ml of distilled water. Thereafter, 9 mL of distilled water adjusted to have a pH of 2.5 was added to each mixture. The pH was readjusted back to 2.5 in case of an increased pH due to the nature of some of the single ingredients (in order to not affect the survival of the probiotics). After adjusting the pH to 2.5, the tubes were incubated at 37° C. for 1 hour to apply the low-pH gastric stress condition. […] During the gastrointestinal tract assay, the samples were taken immediately, 1 hour, and […] after the incubation (t=0, 1, and 2). The probiotic survivability of each sample after gastric stress and bile stress was calculated by counting viable colonies.

[2] = tested on: Lactobacillus plantarum HAC03; assay: Zeta potential of lyophilized probiotics mixed with single ingredients (screening); format: cell-based; conditions: 0.1 M ingredient, rehydrated 1 min, pH 2.5
Experimental: In this experimental example, Lactobacillus plantarum HAC03 (accession number: KCTC13242BP, the Korean Research Institute of Bioscience and Biotechnology) (hereinafter referred to as “HAC03”), which was described in Korean Patent Application No. 10-2017-0051574, was used as a probiotic strain.
Afterwards, 2 mL of pH 2.5 distilled water was added to each sample, the pH was re-adjusted using HCl 0.1 N, and 800 μl of the calibrated sample was loaded in DTS1080 cuvettes. The electrophoretic mobility was measured by the Zetaizer Nano ZEN 3600 (Malvern Panalytica, UK) after 2 minutes of equilibration and the Smoluchowski equation was used to convert the data into zetapotential values.
In this experiment, zeta potentials were measured at a pH of 2.5 in consideration of the highly acidic stomach environment, which is one of the initial hurdles that drastically reduce the survivability of the bacteria.

[3] = HAC03, 1 h, pH 2.5, read-out: Stomach Survivability (%)
[4] = HAC03, 2 h, pH 6, read-out: Duodenum Survivability (%)
[5] = Table 1, 0.1 M ingredient, pH 2.5, 37° C., 1 hour
[6] = Table 1, 0.1 M ingredient, then bile salts (10% ox gall) and pH 6.0 synthetic duodenum juice, 2 hours
[7] = HAC03, Table 1, 0.1 M ingredient, pH 2.5, 37° C., 1 hour, read-out: Stomach Survivability (%)
[8] = HAC03, Table 1, 0.1 M ingredient, then bile salts (10% ox gall) and pH 6.0 synthetic duodenum juice, 2 hours, read-out: Duodenum Survivability (%)

| Structure (SMILES) | survivability compared with fresh cells, in words [1] | Artificial Bile Juice Survivability (%) [1] | Artificial Bile Juice log CFU/mL [1] | Artificial Gastric Juice Survivability (%) [1] | Artificial Gastric Juice log CFU/mL [1] | viability at 100000 µM [1, 3] | viability at 100000 µM [1, 4] | Stomach log CFU/mL [1, 5] | Duodenum log CFU/mL [1, 6] | intestinal survivability (acid resistance and bile resistance) in words ([1]; Table 1) | zeta potential of lyophilized HAC03 mixed with the ingredient (sign, FIG. 1) [2] | viability at 100000 µM [1, 7] | viability at 100000 µM [1, 8] |
| --- | --- | --- | --- | --- | --- | --- | --- | --- | --- | --- | --- | --- | --- |
| OC[C@H]1O[C@H](O[C@H]2[C@H](O)[C@@H](O)C(O)O[C@@H]2CO)[C@H](O)[C@@H](O)[C@@H]1O (mixture of isomers) [Maltose] | survivability similar to or higher than that of fresh cells | 33.79% | 7.61 ± 0.13 log CFU/mL | 85.43% | 8.02 ± 0.05 log CFU/mL | – | – | – | – | – | – | – | – |
| O=C[C@@H](O)[C@H](O)[C@H](O)CO [Arabinose] | – | 9.45% | 7.02 ± 0.35 log CFU/mL | 17.78% | 7.12 ± 0.67 log CFU/mL | – | – | – | – | – | – | – | – |
| O=C(CO)[C@@H](O)[C@H](O)[C@H](O)CO [Fructose] | survivability similar to or higher than that of fresh cells | 20.73% | 7.27 ± 0.48 log CFU/mL | 46.18% | 7.67 ± 0.37 log CFU/mL | – | – | – | – | – | – | – | – |
| N=C(N)NCCC[C@H](N)C(=O)O [L-Arginine, L-arginine] | – | – | – | – | – | 0.13% | 0.08% | 4.00 ± 0.00 log CFU/mL | 3.73 ± 0.34 log CFU/mL | intestinal survivability far inferior to that of distilled water | positive zeta potentials | – | – |
| O=C1O[C@H]([C@@H](O)CO)C(O)=C1O [L-Ascorbic acid, L-ascorbic acid] | – | – | – | – | – | 0.4% | 0.1% | 4.08 ± 0.15 log CFU/mL | 3.49 ± 0.00 log CFU/mL | intestinal survivability far inferior to that of distilled water | positive zeta potentials | – | – |
| N[C@@H](CC(=O)O)C(=O)O [L-Aspartic acid, L-aspartic acid] | – | – | – | – | – | – | – | 7.06 ± 0.56 log CFU/mL | 5.80 ± 0.64 log CFU/mL | intestinal survivability far inferior to that of distilled water | positive zeta potentials | 29.9% | 1.86% |
| N[C@@H](Cc1c[nH]cn1)C(=O)O [L-Histidine, L-histidine] | – | – | – | – | – | – | – | 7.83 ± 0.11 log CFU/mL | 7.52 ± 0.08 log CFU/mL | increased in acid resistance and bile resistance | negative zeta potentials | 56.6% | 27.2% |
| NCCC[C@H](N)C(=O)O [L-Ornithine, L-ornithine] | – | – | – | – | – | – | – | 7.75 ± 0.02 log CFU/mL | 7.57 ± 0.03 log CFU/mL | – | negative zeta potentials | – | – |
| N[C@@H](Cc1ccc(O)cc1)C(=O)O [L-Tyrosine, L-tyrosine] | – | – | – | – | – | – | – | 7.98 ± 0.04 log CFU/mL | 7.65 ± 0.01 log CFU/mL | increased in acid resistance and bile resistance | negative zeta potentials | 73.5% | 33.9% |
| O=C(O)CC(O)C(=O)O (centres unmarked) [Malic acid, malic acid] | – | – | – | – | – | – | – | <3.99 ± 0.00 log CFU/mL | <3.49 ± 0.00 log CFU/mL | intestinal survivability far inferior to that of distilled water | positive zeta potentials | < 0.01% | < 0.003% |
| OC[C@@H](O)[C@@H](O)[C@H](O)[C@H](O)CO [Mannitol] | – | 11.77% | 6.90 ± 0.44 log CFU/mL | 20.04% | 7.18 ± 0.32 log CFU/mL | – | – | – | – | – | – | – | – |
| C[C@H](O)[C@H](O)[C@@H](O)[C@@H](O)C=O [Rhamnose] | – | 18.25% | 7.53 ± 0.08 log CFU/mL | 40.75% | 7.87 ± 0.10 log CFU/mL | – | – | – | – | – | – | – | – |
| OC[C@@H](O)[C@@H](O)[C@H](O)[C@@H](O)CO [Sorbitol] | survivability similar to or higher than that of fresh cells | 40.46% | 7.69 ± 0.09 log CFU/mL | 82.06% | 8.00 ± 0.05 log CFU/mL | – | – | – | – | – | – | – | – |
| OC[C@H]1O[C@@](CO)(O[C@H]2O[C@H](CO)[C@@H](O)[C@H](O)[C@H]2O)[C@@H](O)[C@@H]1O [Sucrose] | survivability similar to or higher than that of fresh cells | 42.99% | 7.71 ± 0.13 log CFU/mL | 80.90% | 7.99 ± 0.13 log CFU/mL | – | – | – | – | – | – | – | – |
| OC[C@H]1O[C@H](O[C@H]2O[C@H](CO)[C@@H](O)[C@H](O)[C@H]2O)[C@H](O)[C@@H](O)[C@@H]1O [Trehalose] | survivability similar to or higher than that of fresh cells | 28.10% | 7.36 ± 0.03 log CFU/mL | 54.75% | 7.65 ± 0.05 log CFU/mL | – | – | – | – | – | – | – | – |
| O=C[C@H](O)[C@@H](O)[C@H](O)CO [Xylose] | – | 8.47% | 6.97 ± 0.49 log CFU/mL | 27.36% | 7.50 ± 0.25 log CFU/mL | – | – | – | – | – | – | – | – |
